Assay [1] has as its system histone H3 acetylation in human bladder carcinoma T24 cells. Description: Cell-based ELISA for H3 acetylation. The protocol: (§1) Bladder carcinoma T24 cells were seeded in black plates with clear bottoms (Costar #3603) at 1×10^4 cells per well in a volume of 100 μl per well, and were allowed to settle for one day at 37° C. in a CO2 incubator. The cells were treated for 16 h with various concentrations of HDAC inhibitors. 3 h before the end of the treatment, Alamar Blue (BioSource) was added to monitor cell viability according to the manufacturer's instructions. At the end of the treatment time, Alamar Blue OD (at 570 nm and 600 nm) was recorded, then the cells were carefully washed in PBS, fixed in pre-chilled methanol for 10 min at −20° C., washed again twice in PBS, and blocked in PBS containing 0.1% Triton X-100 and 1% BSA for a minimum of 30 min. For H3 acetylation, rabbit-anti-acetyl-H3 (Upstate #06-599) was used as primary antibody at a dilution of 1:1000 for 45 min; the secondary antibody was HRP-coupled goat-anti-rabbit (Sigma #A-0545), used at 1:8000 for 45 min. For tubulin acetylation, the primary antibody was mouse anti-acetyl-tubulin (Sigma #T-6793, 1:2000, 45 min) while the secondary was HRP-coupled goat-anti-mouse antibody (Sigma #A-2304, 1:8000, 45 min). All antibodies were diluted in blocking buffer, and the cells were washed in blocking buffer following each antibody incubation. […] The fluorescent signal for acetylation was normalized by dividing with the viability data obtained from Alamar Blue. EC50 was defined as the concentration of compound which gave a signal half-way between the basal (untreated) level and the maximum level generated by high doses of the HDAC pan-inhibitor NVP-LAQ-824.
Background: ELISA stands for enzyme-linked immunosorbent assay.

The subject of assay [2] is tubulin acetylation in human bladder carcinoma T24 cells. Description: Cell-based ELISA for tubulin acetylation. The protocol: as §1
Assay [3] concerns VEGF expression in DU145 cells. Description: VEGF transcription in Du145 cells in vitro. The class given is cell-based, human. The conditions noted are these: 24 hour treatment. The protocol:
Human prostate cancer Du145 cells were exposed to Cpd A or SAHA (3 microM) for 24 hours. Total RNA was collected by Isogen (Nippongene, Tokyo, Japan) and reverse-transcribed to cDNA by ExScript® RT reagent Kit (TAKARA, Kyoto, Japan). The expression level of bFGF mRNA was detected by ABI7700 analyzer using probe/primer pre-mixture reagent (ABI, Cat# Hs00266645_m1, CA, USA) and TaqMan® Universal PCR Master Mix (ABI, Cat# 430-4437) as described in the ABI's protocol. The expression level of VEGF mRNA was detected in a similar manner using the appropriate probe/primer reagents.

Assay [4] has as its system anti-angiogenesis genes in colon adenocarcinoma HCT15 cells. As to the kind of experiment: Microarray analysis of anti-angiogenesis genes in HCT15 cells. The class given is cell-based, human. The conditions noted are these: 1 μM, 24 h. The procedure: RNA labeling, microarray hybridization, scanning and analysis were performed by Genotypics (India). RNAs were labeled with either Cy3 or Cy5 using Agilent's optimized labeling kits and hybridized to Human whole genome 44K Oligo Microarray. Array chips were ordered from Agilent (Palo Alto, Calif.). Slides were scanned using a DNA microarry scanner from Agilent and the raw data was extracted using Agilent's image analysis tool (feature extraction software). Normalization and Statistical analysis were performed using GeneSpring software. Biological analysis was performed using Biointerpreter software.
FIG. 4a indicates a list of selected genes with anti-angiogenesis function. The numbers indicate the fold induction in treated samples compared to non-treated samples (average of three biological replicates ±standard deviation).

The subject of assay [5] is TSP-1 (THBS1) transcription in human cancer HCT15 cells. As to the kind of experiment: Microarray analysis of TSP-1 (THBS1) transcription in HCT15 cells. The class given is cell-based. The conditions noted are these: HCT15 cells in vitro, 24 hours. The source says:
Total RNAs were extracted and RNA quality analysis was done using Agilent 2100 bioanalyzer and Agilent's RNA Labchip kits. RNAs were labeled with either Cy3 or Cy5 using Agilent's optimized labeling kits and hybridized to Human whole genome 44K Oligo Microarray (Agilent, Palo Alto, Calif.). Slides were scanned using DNA microarry scanner from Agilent and the raw data was extracted using Agilent's image analysis tool (feature extraction software). Normalization and statistical analysis were performed using GeneSpring software. Biological analysis was performed using Biointerpreter software.

Assay [6] relates to MT3 transcription in human colon cancer HCT15 cells. Description: MT3 transcription in HCT15 cells, real time RT-PCR. The class given is cell-based. The conditions noted are these: 1 uM. The procedure: (§2) Total RNAs were extracted from cell pellets or from tumors using QiaShredder and RNeasy mini kit (Qiagen). 1 μg RNA was converted into cDNA using Expand RT enzyme (Roche) and Oligo(dT) primers (Invitrogen) in a 20 μl reaction volume. For quantitative real-time PCR, the primers used for MT3 were [NT] and [NT] and those for β-actin were [NT] and [NT]. Reactions with either pair of primers included an annealing temperature of 63.4° C. All real-time PCR reactions were performed on the MasterCycler ep Realplex (Eppendorf) using FastStart SYBRGreen Master (Roche).
On the technique in general: In qPCR the cycle at which signal appears reflects the starting amount.

For assay [7], the system named is MT3 transcription in human myeloma RPMI-8226 cells. Description: MT3 transcription in RPMI-8226 cells, real time RT-PCR. The class given is cell-based. To be noted: 24 hours. The protocol:
as §2

Assay [8] concerns MT3 transcription in implanted H460 tumors. Description: MT3 transcription in implanted H460 tumors in vivo. More on the design: species or system mouse. To be noted: H460 tumors in mice, single dose 100 mg/kg po. The procedure: 6 hours or 24 hours post drug administration, mice were sacrificed and tumor excised and put in RNAlater (Ambion, Austin, Tex.) and stored at −70 C until RNAs were extracted using QiaShredder and RNeasy mini kit (Qiagen). For real time RT-PCR to determine MT3 transcription level, 1 μg RNA was converted into cDNA using Expand RT enzyme (Roche) and Oligo(dT) primers (Invitrogen) in a 20 μl reaction volume. For quantitative real-time PCR, the primers used for MT3 were 5′CCCTGCGGAGTGTGAGAAGT 3′ and 5′TGCTTCTGCCTCAGCTGCCT 3′ and those for β-actin were 5′CTCTTCCAGCCTTCCTTCCT 3′ and 5′AGCACTGTGTTGGCGTACAG 3′. Reactions with either pair of primers included an annealing temperature of 63.4° C. All real-time PCR reactions were performed on the MasterCycler ep Realplex (Eppendorf) using FastStart SYBRGreen Master (Roche).

In assay [9] the test system is human H460 non-small cell lung tumor, Du145 prostate tumor, TSU-Pr1 prostate tumor, and AZ521 gastric tumor xenograft. As to the kind of experiment: Xenograft combination studies with taxol (Example 15). To be noted: oral administration, nude mice with human lung, prostate and gastric tumors. The assay is classed as in vivo, mouse. The procedure: Antitumor studies were done using human H460 non-small cell lung tumor, Du145 prostate tumor, TSU-Pr1 prostate tumor, and AZ521 gastric tumor xenograft model in male BALBc/A nude mice (from Japan Crea Inc., Japan). Male nude mice were used at age 8-10 weeks. Human carcinoma cells were injected subcutaneously in the animal flank and allowed to form solid tumors. Tumor fragments (about 2 mm^3 fragments) were then removed and implanted subcutaneously through a small surgical incision to the right flank of other animals. […] Tumor volumes and gross body weight of animals were monitored twice weekly for up to 2 weeks for AZ-521 and TSU-Pr1, or 4 weeks for H460 and Du145 xenografts. Each experimental group contained 6 animals.
For orientation: In xenograft studies the graft and the host belong to different species.

Entries after “also recorded” stand apart in the source; their conditions may differ.

`Nc1ccccc1NC(=O)c1ccc(CNc2nccc(-c3cccnc3)n2)cc1` [Compound A]: the “histone H3 acetylation” value in assay [1] is listed as “dose-dependent induction”. In addition, the tubulin acetylation result in assay [2] is reported as “but not tubulin acetylation”. Moreover, the VEGF expression entry in assay [3] was “suppression”. Moreover, in assay [4], the “transcription of anti-angiogenesis genes” value is “affects several genes of the angiogenesis pathway; also recorded: induction”. The “TSP-1 (THBS1) transcription” value in [5] is on record as “induction”. Moreover, the MT3 transcription result in assay [6] is reported as “much more potent than SAHA”; in [7], “dose-dependent induction”. In addition, the “MT3 transcription in tumors” value in assay [8] is “induction”. Moreover, the “antitumor activity of taxol” value in [9] is on record as “Potentiation”.

Take `Nc1ccccc1NC(=O)c1ccc(N2CC[C@H](Nc3cccnc3)C2)cc1` [Compound B]: in [5], the “TSP-1 (THBS1) transcription” value is “induction”. Besides, the “antitumor activity of taxol” value in assay [9] is reported as “Potentiation”.

The record behind these values is patent publication US20090124631A1, “Combination Therapy” (priority 2007, published 2009).
